Source: ChEMBL document CHEMBL3627711, “Highly Substituted Cyclopentane-CMP Conjugates as Potent Sialyltransferase Inhibitors” (J Med Chem, 2015)
Several values for one entry are separate records, joined by “and”; a condition that tells them apart may be missing. Identical values can stand only once.

Experiments:
[1] = molecular target: T1, Beta-galactoside alpha-2,6-sialyltransferase 1 (Homo sapiens) (UniProt P15907); assay: Inhibition of human recombinant ST6Gal-1 assessed as trisaccharide formation using CMP-Neu5Ac and p-nitrophenyl LacNAc as donar and acceptor at 10 uM by RP-HPLC analysis
T1 sequence (whole entry): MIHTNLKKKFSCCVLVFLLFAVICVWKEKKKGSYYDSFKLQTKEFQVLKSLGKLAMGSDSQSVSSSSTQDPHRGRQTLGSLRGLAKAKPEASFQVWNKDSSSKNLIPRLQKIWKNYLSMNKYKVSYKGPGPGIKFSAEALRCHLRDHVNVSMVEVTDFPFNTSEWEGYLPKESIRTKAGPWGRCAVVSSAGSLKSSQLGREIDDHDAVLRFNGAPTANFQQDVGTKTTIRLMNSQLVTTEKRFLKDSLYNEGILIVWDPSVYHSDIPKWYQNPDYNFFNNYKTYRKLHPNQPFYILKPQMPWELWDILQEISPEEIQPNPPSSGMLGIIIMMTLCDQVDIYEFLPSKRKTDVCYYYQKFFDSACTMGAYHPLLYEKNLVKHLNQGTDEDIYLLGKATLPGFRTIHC

[2] = molecular target: T1, Beta-galactoside alpha-2,6-sialyltransferase 1 (Homo sapiens); assay: Ratio of CMP-Neu5Ac Km to compound Ki for human recombinant ST6Gal-1
[3] = molecular target: T2, Beta-galactoside alpha-2,6-sialyltransferase 1 (Homo sapiens, UniProt P15907); assay: Competitive inhibition of human recombinant ST6Gal-1 using CMP-Neu5Ac and p-nitrophenyl LacNAc as donar and acceptor by Lineweaver-Burk double reciprocal plot analysis
T2 sequence (P15907 whole entry): T1 sequence (whole entry)

[4] = Inhibition of rat alpha-2,6-sialyltransferase

CC(=O)NC[C@@H]1C[C@@H](C(OP(=O)(O)OC[C@H]2O[C@@H](n3ccc(N)nc3=O)[C@H](O)[C@@H]2O)P(=O)(O)O)C[C@H]1OCc1ccccc1 (stereo partly drawn)
inhibition [1]: 46.3% and 70.8% | Ratio [2]: 48.1 | Ki [3]: 865 nM

Nc1ccn([C@@H]2O[C@H](COP(=O)(O)OC(c3cccc(Oc4ccccc4)c3)P(=O)(O)O)[C@@H](O)[C@H]2O)c(=O)n1 (stereo partly drawn)
inhibition [1]: 98.1% | Ratio [2]: 2190 | Ki [3]: 19 nM

CC(=O)N[C@H]1[C@H](Oc2ccccc2)OC(C(OP(=O)(O)OC[C@H]2O[C@@H](n3ccc(N)nc3=O)[C@H](O)[C@@H]2O)P(=O)(O)O)=C[C@@H]1O (stereo partly drawn)
Ki [4]: 29 nM

Nc1ccn([C@@H]2O[C@H](COP(=O)(O)OC(C3CCCC3)P(=O)(O)O)[C@@H](O)[C@H]2O)c(=O)n1 (stereo in doubt; 2l)
inhibition [1]: 12.8%

Nc1ccn([C@@H]2O[C@H](COP(=O)(O)OC(C3CCCC3)P(=O)(O)O)[C@@H](O)[C@H]2O)c(=O)n1 (stereo in doubt; 2s) [listing 1 of 2 here]
Ki [3]: 5850 nM

Nc1ccn([C@@H]2O[C@H](COP(=O)(O)OC(C3CCCC3)P(=O)(O)O)[C@@H](O)[C@H]2O)c(=O)n1 (stereo in doubt; 2s) [listing 2 of 2 here]
inhibition [1]: 43.2% | Ratio [2]: 7.1

Nc1ccn([C@@H]2O[C@H](COP(=O)(O)OC([C@H]3C[C@@H](O)[C@@H](O)C3)P(=O)(O)O)[C@@H](O)[C@H]2O)c(=O)n1 (stereo in doubt; 3l)
inhibition [1]: 13%

Nc1ccn([C@@H]2O[C@H](COP(=O)(O)OC([C@H]3C[C@@H](O)[C@@H](O)C3)P(=O)(O)O)[C@@H](O)[C@H]2O)c(=O)n1 (stereo in doubt; 3s)
inhibition [1]: 31%

CC(=O)N[C@H]1C[C@H](C(OP(=O)(O)OC[C@H]2O[C@@H](n3ccc(N)nc3=O)[C@H](O)[C@@H]2O)P(=O)(O)O)C[C@H]1O (stereo in doubt; 4Sl)
inhibition [1]: 9.99%

CC(=O)N[C@H]1C[C@H](C(OP(=O)(O)OC[C@H]2O[C@@H](n3ccc(N)nc3=O)[C@H](O)[C@@H]2O)P(=O)(O)O)C[C@H]1O (stereo in doubt; 4Ss) [listing 1 of 2 here]
Ki [3]: 4310 nM

CC(=O)N[C@H]1C[C@H](C(OP(=O)(O)OC[C@H]2O[C@@H](n3ccc(N)nc3=O)[C@H](O)[C@@H]2O)P(=O)(O)O)C[C@H]1O (stereo in doubt; 4Ss) [listing 2 of 2 here]
inhibition [1]: 50.3% | Ratio [2]: 9.6

CC(=O)N[C@H]1C[C@@H](C(OP(=O)(O)OC[C@H]2O[C@@H](n3ccc(N)nc3=O)[C@H](O)[C@@H]2O)P(=O)(O)O)C[C@H]1OCc1ccccc1 (stereo in doubt; 5Rl)
inhibition [1]: 22.1%

CC(=O)N[C@H]1C[C@@H](C(OP(=O)(O)OC[C@H]2O[C@@H](n3ccc(N)nc3=O)[C@H](O)[C@@H]2O)P(=O)(O)O)C[C@H]1OCc1ccccc1 (stereo in doubt; 5Rs) [listing 1 of 2 here]
Ki [3]: 1510 nM

CC(=O)N[C@H]1C[C@@H](C(OP(=O)(O)OC[C@H]2O[C@@H](n3ccc(N)nc3=O)[C@H](O)[C@@H]2O)P(=O)(O)O)C[C@H]1OCc1ccccc1 (stereo in doubt; 5Rs) [listing 2 of 2 here]
inhibition [1]: 65.9% | Ratio [2]: 27.6

CC(=O)N[C@H]1C[C@H](C(OP(=O)(O)OC[C@H]2O[C@@H](n3ccc(N)nc3=O)[C@H](O)[C@@H]2O)P(=O)(O)O)C[C@H]1OCc1ccccc1 (stereo in doubt; 5Sl) [listing 1 of 2 here]
Ki [3]: 436 nM

CC(=O)N[C@H]1C[C@H](C(OP(=O)(O)OC[C@H]2O[C@@H](n3ccc(N)nc3=O)[C@H](O)[C@@H]2O)P(=O)(O)O)C[C@H]1OCc1ccccc1 (stereo in doubt; 5Sl) [listing 2 of 2 here]
inhibition [1]: 75.3% | Ratio [2]: 95.5

CC(=O)N[C@H]1C[C@H](C(OP(=O)(O)OC[C@H]2O[C@@H](n3ccc(N)nc3=O)[C@H](O)[C@@H]2O)P(=O)(O)O)C[C@H]1OCc1ccccc1 (stereo in doubt; 5Ss) [listing 1 of 2 here]
Ki [3]: 1630 nM

CC(=O)N[C@H]1C[C@H](C(OP(=O)(O)OC[C@H]2O[C@@H](n3ccc(N)nc3=O)[C@H](O)[C@@H]2O)P(=O)(O)O)C[C@H]1OCc1ccccc1 (stereo in doubt; 5Ss) [listing 2 of 2 here]
inhibition [1]: 63.9% | Ratio [2]: 25.6

CC(=O)NC[C@@H]1CCC(OP(=O)(O)OC[C@H]2O[C@@H](n3ccc(N)nc3=O)[C@H](O)[C@@H]2O)(P(=O)(O)O)[C@H]1OCc1ccccc1 (stereo in doubt; 48l) [listing 1 of 2 here]
Ki [3]: 28 nM

CC(=O)NC[C@@H]1CCC(OP(=O)(O)OC[C@H]2O[C@@H](n3ccc(N)nc3=O)[C@H](O)[C@@H]2O)(P(=O)(O)O)[C@H]1OCc1ccccc1 (stereo in doubt; 48l) [listing 2 of 2 here]
inhibition [1]: 97.5% | Ratio [2]: 1490

CC(=O)NC[C@@H]1CCC(OP(=O)(O)OC[C@H]2O[C@@H](n3ccc(N)nc3=O)[C@H](O)[C@@H]2O)(P(=O)(O)O)[C@H]1OCc1ccccc1 (stereo in doubt; 48s) [listing 1 of 2 here]
Ki [3]: 477 nM

CC(=O)NC[C@@H]1CCC(OP(=O)(O)OC[C@H]2O[C@@H](n3ccc(N)nc3=O)[C@H](O)[C@@H]2O)(P(=O)(O)O)[C@H]1OCc1ccccc1 (stereo in doubt; 48s) [listing 2 of 2 here]
inhibition [1]: 74.1% | Ratio [2]: 87.3
